Assay results as given in PubChem BioAssay AID180 (DTP/NCI, 2004).
“And” between values parts separate entries of the source, which are not always exact repeats. Identical values can stand only once.

Tested on: BDF1 mice, Adenocarcinoma 755 s.c., tumor weight T/C
Assay: NCI In Vivo Anticancer Drug Screen. Data for tumor model Adenocarcinoma 755 (subcutaneous) in B6D2F1 (BDF1) mice
Details: endpoint: mean tumor weight, higher = larger tumour
Procedure, shortened: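 Transplantable tumor implanted; mice dosed with compound or vehicle; survival or tumor size recorded; ratio of treated to vehicle control reported.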

[1] = dose: 12.5 mg/kg/injection, schedule: Q01DX011 (ip), vehicle: methylcellulose (MC)
[2] = dose: 2.0 mg/kg/injection, schedule: Q01DX011 (ip), vehicle: carboxymethylcellulose (CMC)
[3] = dose: 4.0 mg/kg/injection, schedule: Q01DX011 (ip), vehicle: carboxymethylcellulose (CMC)
[4] = dose: 1.5 mg/kg/injection, schedule: Q01DX011 (ip), vehicle: carboxymethylcellulose (CMC)
[5] = dose: 3.0 mg/kg/injection, schedule: Q01DX011 (ip), vehicle: carboxymethylcellulose (CMC)
[6] = dose: 7.5 mg/kg/injection, schedule: Q01DX011 (ip), vehicle: carboxymethylcellulose (CMC)
[7] = dose: 15.0 mg/kg/injection, schedule: Q01DX011 (ip), vehicle: carboxymethylcellulose (CMC)

Question: What does the source list for `OCn1cccn1`?
Answer: T/C (dose: 20.0 mg/kg/injection, schedule: Q01DX011 (ip), vehicle: other): 68 % of control; T/C (dose: 20.0 mg/kg/injection, schedule: Q01DX011 (ip), vehicle: saline): 89 % of control; T/C (dose: 40.0 mg/kg/injection, schedule: Q01DX011 (ip), vehicle: other): 23 % of control; T/C (dose: 40.0 mg/kg/injection, schedule: Q01DX011 (ip), vehicle: saline): 45 % of control; T/C (dose: 80.0 mg/kg/injection, schedule: Q01DX011 (ip), vehicle: other): 2 % of control; T/C (dose: 80.0 mg/kg/injection, schedule: Q01DX011 (ip), vehicle: saline): 27 % of control; T/C (dose: 160.0 mg/kg/injection, schedule: Q01DX011 (ip), vehicle: saline): 2 % of control

Question: Which T/C (dose: 75.0 mg/kg/injection, schedule: Q01DX011 (ip), vehicle: carboxymethylcellulose (CMC)) does the source give for `Cn1c(=O)c2c(ncn2CCCO)n(C)c1=O` here?
Answer: 61 % of control

Question: What about the T/C (dose: 225.0 mg/kg/injection, schedule: Q01DX011 (ip), vehicle: carboxymethylcellulose (CMC)) of the same compound?
Answer: 65 % of control

Question: With `CC(C)CCn1cnc2c(=S)nc(N)[nH]c21` as the compound, how does the T/C (dose: 1.5 mg/kg/injection, schedule: Q01DX011 (ip), vehicle: methylcellulose (MC)) read?
Answer: 48 % of control

Question: What about the T/C (dose: 3.1 mg/kg/injection, schedule: Q01DX011 (ip), vehicle: methylcellulose (MC)) of the same compound?
Answer: 37 % of control

Question: What about the T/C (dose: 6.2 mg/kg/injection, schedule: Q01DX011 (ip), vehicle: methylcellulose (MC)) of the same compound?
Answer: 14 % of control

Question: What about the T/C [1] of the same compound?
Answer: 1 % of control and 9 % of control

Question: What does the source list for `[I][Hg][CH2]C1COC([CH2][Hg][I])CO1` (stereo not drawn)?
Answer: T/C (dose: 0.8 mg/kg/injection, schedule: Q#A X022 (ip), vehicle: carboxymethylcellulose (CMC)): 96 % of control; T/C (dose: 1.25 mg/kg/injection, schedule: Q#A X022 (ip), vehicle: carboxymethylcellulose (CMC)): 43 % of control; T/C (dose: 1.9 mg/kg/injection, schedule: Q#A X022 (ip), vehicle: carboxymethylcellulose (CMC)): 84 % of control; T/C (dose: 2.85 mg/kg/injection, schedule: Q#A X022 (ip), vehicle: carboxymethylcellulose (CMC)): 35 % of control and 50 % of control; T/C (dose: 2.9 mg/kg/injection, schedule: Q01DX006 (iv), vehicle: carboxymethylcellulose (CMC)): 154 % of control; T/C (dose: 4.3 mg/kg/injection, schedule: Q#A X022 (ip), vehicle: carboxymethylcellulose (CMC)): 36 % of control; T/C (dose: 4.4 mg/kg/injection, schedule: Q01DX006 (iv), vehicle: carboxymethylcellulose (CMC)): 90 % of control; T/C (dose: 6.5 mg/kg/injection, schedule: Q#A X022 (ip), vehicle: carboxymethylcellulose (CMC)): 23 % of control; T/C (dose: 6.6 mg/kg/injection, schedule: Q01DX006 (iv), vehicle: carboxymethylcellulose (CMC)): 95 % of control; T/C (dose: 10.0 mg/kg/injection, schedule: Q01DX006 (iv), vehicle: carboxymethylcellulose (CMC)): 78 % of control; T/C (dose: 22.0 mg/kg/injection, schedule: Q03DX004 (ip), vehicle: carboxymethylcellulose (CMC)): 62 % of control; T/C (dose: 24.0 mg/kg/injection, schedule: Q01DX011 (oral), vehicle: carboxymethylcellulose (CMC)): 71 % of control; T/C (dose: 25.0 mg/kg/injection, schedule: Q01DX011 (oral), vehicle: methylcellulose (MC)): 75 % of control; T/C (dose: 35.0 mg/kg/injection, schedule: Q01DX001 (ip), vehicle: carboxymethylcellulose (CMC)): 96 % of control; T/C (dose: 35.0 mg/kg/injection, schedule: Q01DX011 (oral), vehicle: carboxymethylcellulose (CMC)): 92 % of control; T/C (dose: 35.0 mg/kg/injection, schedule: Q03DX004 (ip), vehicle: carboxymethylcellulose (CMC)): 69 % of control; T/C (dose: 35.0 mg/kg/injection, schedule: Q07DX002 (ip), vehicle: carboxymethylcellulose (CMC)): 77 % of control; T/C (dose: 50.0 mg/kg/injection, schedule: Q01DX011 (oral), vehicle: methylcellulose (MC)): 86 % of control; T/C (dose: 50.0 mg/kg/injection, schedule: Q03DX004 (ip), vehicle: carboxymethylcellulose (CMC)): 51 % of control; T/C (dose: 55.0 mg/kg/injection, schedule: Q01DX011 (oral), vehicle: carboxymethylcellulose (CMC)): 81 % of control; T/C (dose: 60.0 mg/kg/injection, schedule: Q01DX011 (ip), vehicle: methylcellulose (MC)): 15 % of control; T/C (dose: 80.0 mg/kg/injection, schedule: Q01DX011 (oral), vehicle: carboxymethylcellulose (CMC)): 78 % of control; T/C (dose: 85.0 mg/kg/injection, schedule: Q01DX001 (ip), vehicle: carboxymethylcellulose (CMC)): 89 % of control; T/C (dose: 100.0 mg/kg/injection, schedule: Q01DX011 (oral), vehicle: methylcellulose (MC)): 74 % of control; T/C (dose: 120.0 mg/kg/injection, schedule: Q01DX011 (ip), vehicle: methylcellulose (MC)): 60 % of control; T/C (dose: 160.0 mg/kg/injection, schedule: Q01DX011 (im), vehicle: carboxymethylcellulose (CMC)): 36 % of control; T/C (dose: 160.0 mg/kg/injection, schedule: Q01DX011 (sc), vehicle: carboxymethylcellulose (CMC)): 42 % of control; T/C (dose: 240.0 mg/kg/injection, schedule: Q01DX011 (sc), vehicle: carboxymethylcellulose (CMC)): 8 % of control; T/C (dose: 360.0 mg/kg/injection, schedule: Q01DX011 (im), vehicle: carboxymethylcellulose (CMC)): 10 % of control

Question: How did the T/C [2] turn out when `CS(=O)(=O)OCCCCCCCCCOS(C)(=O)=O` was run?
Answer: 35 % of control

Question: And the T/C [3]?
Answer: 49 % of control

Question: What about the T/C (dose: 8.0 mg/kg/injection, schedule: Q01DX011 (ip), vehicle: carboxymethylcellulose (CMC)) of the same compound?
Answer: 54 % of control

Question: What about the T/C (dose: 16.0 mg/kg/injection, schedule: Q01DX011 (ip), vehicle: carboxymethylcellulose (CMC)) of the same compound?
Answer: 26 % of control

Question: And the T/C (dose: 28.0 mg/kg/injection, schedule: Q01DX011 (ip), vehicle: carboxymethylcellulose (CMC))?
Answer: 7 % of control

Question: What does the source list for `Cc1ccc(CSc2ncnc3nc[nH]c23)cc1C`?
Answer: T/C (dose: 18.75 mg/kg/injection, schedule: Q01DX011 (ip), vehicle: methylcellulose (MC)): 48 % of control; T/C (dose: 37.5 mg/kg/injection, schedule: Q01DX011 (ip), vehicle: methylcellulose (MC)): 41 % of control; T/C (dose: 75.0 mg/kg/injection, schedule: Q01DX011 (ip), vehicle: methylcellulose (MC)): 32 % of control; T/C (dose: 150.0 mg/kg/injection, schedule: Q01DX011 (ip), vehicle: methylcellulose (MC)): 7 % of control

Question: For `CCCCNC(=O)c1n[se]nc1N`, which T/C [2] is on record?
Answer: 76 % of control

Question: And the T/C [3]?
Answer: 87 % of control

Question: How did the T/C (dose: 0.7 mg/kg/injection, schedule: Q01DX011 (ip), vehicle: carboxymethylcellulose (CMC)) turn out when `Nc1nc(=S)c2ncn(C3CCCO3)c2[nH]1` (stereo not drawn) was run?
Answer: 71 % of control

Question: What about the T/C [4] of the same compound?
Answer: 60 % of control

Question: And the T/C [5]?
Answer: 38 % of control

Question: What about the T/C [6] of the same compound?
Answer: 2 % of control

Question: What about the T/C [7] of the same compound?
Answer: 2 % of control

Question: How did the T/C (dose: 25.0 mg/kg/injection, schedule: Q01DX011 (ip), vehicle: methylcellulose (MC)) turn out when `CCCCn1cnc2c(SCC(=O)O)nc(N)nc21` was run?
Answer: 54 % of control

Question: And the T/C (dose: 80.0 mg/kg/injection, schedule: Q01DX011 (ip), vehicle: methylcellulose (MC))?
Answer: 58 % of control

Question: And the T/C (dose: 250.0 mg/kg/injection, schedule: Q01DX011 (ip), vehicle: methylcellulose (MC))?
Answer: 69 % of control

Question: For `O=S(=O)(F)c1ncnc2nc[nH]c12`, which T/C (dose: 3.13 mg/kg/injection, schedule: Q01DX011 (ip), vehicle: methylcellulose (MC)) is on record?
Answer: 75 % of control

Question: And the T/C (dose: 6.25 mg/kg/injection, schedule: Q01DX011 (ip), vehicle: methylcellulose (MC))?
Answer: 113 % of control

Question: What about the T/C [1] of the same compound?
Answer: 72 % of control

Question: For `CCOC(=O)c1c(C#N)c(Cl)nc(C)c1[N+](=O)[O-]`, which T/C [4] is on record?
Answer: 60 % of control

Question: And the T/C [5]?
Answer: 70 % of control

Question: What does the source list for `CC(=O)OCC1OC(n2cnc3c(=O)[nH]c(=O)[nH]c32)C(OC(C)=O)C1OC(C)=O` (stereo not drawn)?
Answer: T/C (dose: 30.0 mg/kg/injection, schedule: Q01DX011 (ip), vehicle: saline): 101 % of control; T/C (dose: 60.0 mg/kg/injection, schedule: Q01DX011 (ip), vehicle: saline): 103 % of control; T/C (dose: 120.0 mg/kg/injection, schedule: Q01DX011 (ip), vehicle: saline): 86 % of control; T/C (dose: 240.0 mg/kg/injection, schedule: Q01DX011 (ip), vehicle: saline): 112 % of control

Question: Which results are given for `CCCCn1cnc2c(SC)nc(N)nc21`?
Answer: T/C (dose: 3.8 mg/kg/injection, schedule: Q01DX011 (ip), vehicle: carboxymethylcellulose (CMC)): 95 % of control; T/C [6]: 49 % of control; T/C (dose: 9.0 mg/kg/injection, schedule: Q01DX011 (ip), vehicle: carboxymethylcellulose (CMC)): 79 % of control; T/C (dose: 13.0 mg/kg/injection, schedule: Q01DX011 (ip), vehicle: carboxymethylcellulose (CMC)): 69 % of control; T/C [7]: 30 % of control; T/C (dose: 20.0 mg/kg/injection, schedule: Q01DX011 (ip), vehicle: carboxymethylcellulose (CMC)): 44 % of control; T/C (dose: 60.0 mg/kg/injection, schedule: Q01DX011 (ip), vehicle: carboxymethylcellulose (CMC)): 3 % of control and 4 % of control; T/C (dose: 115.0 mg/kg/injection, schedule: Q01DX011 (ip), vehicle: carboxymethylcellulose (CMC)): 2 % of control and 3 % of control
